Legend:
[1] = Testing for mydriasis (effect on pupil size); conditions: rat, in vivo, iv; rats; pupil observed 10 minutes
Description: The effect of the test substances on the pupil size in rats was investigated as follows:
The substances were administered intravenously to groups of 10 animals in at least three uniformly graduated doses. The pupil size was then observed for 10 minutes to see if there were any changes (mydriasis or miosis). […] The percentage of test animals in which mydriasis occurred was determined. The ED50 values were again determined during the method of LITCHFIELD and WILCOXON (see above).

muscarinic receptors [2] = experiment: Oxotremorine test: protection against oxotremorine-induced lesions in the mucous membrane of the stomach; assay type: in vivo, rat (female albino, Crl:COBS-CD (SD) BR); conditions: i.v.; rats; oxotremorine 0.62 mg/kg i.v. after neostigmine 1 mg/kg oral; % animals without lesions
Description: (§1) Oxotremorine, a specific agonist for muscarinic receptors produces lesions in the mucous membrane of the stomach in rats and increases their secretion of saliva. This test method was chosen so that any selective activity of an antimuscarinic substance on the stomach could be identified.
(§2) Ten female albino rats (of the Crl:COBS-CD (SD) BR strain) with a body weight of from 120 to 150 gm apiece were used in each treatment group and were kept without food for 24 hours before the start of the test but given free access to drinking water.
(§3) To determine, in preliminary tests, the muscarinic effect of oxotremorine on each of the symptoms studied, a dosage/activity curve was drawn up with at least three dosages for each symptom.
(§4) When the antimuscarinic substances were tested, the dosage of oxotremorine which triggered the symptom in question in 90 to 100% of the animals in the preliminary tests was used.
Each antimuscarinic substance was administered intravenously in uniformly graduated doses 15 minutes before the oxotremorine was administered. Control groups were given corresponding quantities of the solvent and suspension agent instead of the test substance. Immediately after the oxotremorine was administered, the animals were placed in a glass case for 15 minutes and observed.
(§5) The ED50 values were determined using the method described by Litchfield and Wilcoxon (J. Pharmacol. Exp. Ther. 96, 99, 1949).
The effects on lesions of the mucous membrane of the stomach were evaluated as follows:
The lesions of the gastric mucous membrane were produced by intravenous injection of 0.62 mg/kg of oxotremorine 30 minutes after the oral administration of 1 mg/kg of neostigmine (a cholinesterase inhibitor). […] The protective effect of the test substances was expressed as the percentage inhibition (percentage of animals without lesions). The ED50 and ED70 values were determined using the method of LITCHFIELD and WILCOXON (see above).

[3] = target: T1, muscarinic receptors (smooth muscle of the fundus of the stomach) (Rattus norvegicus); experiment: Binding to muscarinic receptors, smooth muscle of the fundus of the stomach (inhibition of specific 3H-NMS binding); set-up: species or system rat (Sprague-Dawley); conditions: 0.3 nM 3H-NMS, 45 min, 30° C., pH 7.4, read-out: Receptor Binding Tests IC50, Smooth Muscle Fundus of Stomach
T1 construct: The smooth muscle of the fundus of the stomach was separated from the mucous membrane of the stomach; from tissue; host or cells: smooth muscle of the stomach fundus of male Sprague-Dawley rats, homogenate
Description: (§6) 3. Studies of binding to muscarinic receptors: Determination of the IC50 value
(§7) The organ donors were male Sprague-Dawley rats with a body weight of from about 180 to 220 gm each. After the heart, stomach, and cerebral cortex had been removed, the remainder of the operation was carried out in ice-cold Hepes-HCl buffer (pH 7.4; 100 m molar NaCl, 10 m molar MgCl2). The smooth muscle of the fundus of the stomach was separated from the mucous membrane of the stomach and subjected to preliminary homogenization. The whole heart was cut up with scissors. All the organs were then homogenized in a Potter apparatus.
(§8) For the bonding test, the homogenized organs were diluted as follows:
Smooth muscle of the fundus
(§9) The homogenized organ preparations were incubated at a specific concentration of the radioligand and with a series of concentrations of the non-radioactive test substances in an Eppendorf centrifuge tube at 30° C. The duration of incubation was 45 minutes. The substance 0.3 n molar ^3 H-N-methylscopolamine (^3 H-NMS) was used as the radioligand. After incubation had been brought to an end by centrifuging at 14,000 g, the radioactivity in the pellet was determined. […] The proportion of non-specific bonding was defined as the radioactivity which was bonded in the presence of 1μ molar quinuclidinylbenzylate. […] The IC50 values of the non-labelled test substances were determined graphically. […]

muscarinic receptors [4] = experiment: Oxotremorine test: inhibition of oxotremorine-induced secretion of saliva; assay type: in vivo, rat (female albino, Crl:COBS-CD (SD) BR); conditions: i.v., 15 min before oxotremorine 0.083 mg/kg i.v.; rats
Description: as §1, §2, §3, §4
Secretion of saliva 0.083 mg/kg i.v.
Each antimuscarinic substance was administered intravenously in uniformly graduated doses 15 minutes before the oxotremorine was administered. Control groups were given corresponding quantities of the solvent and suspension agent instead of the test substance. […]
as §5

[5] = target: muscarinic receptors (cerebral cortex); experiment: Binding to muscarinic receptors, cerebral cortex (inhibition of specific 3H-NMS binding); set-up: species or system rat (Sprague-Dawley); conditions: 0.3 nM 3H-NMS, 45 min, 30° C., pH 7.4, read-out: Receptor Binding Tests IC50, Cortex
Description: as §6, §7, §8, §9

[6] = target: T2, muscarinic receptors (heart) (Rattus norvegicus, UniProt P10980); experiment: Binding to muscarinic receptors, whole heart (inhibition of specific 3H-NMS binding); set-up: species or system rat (Sprague-Dawley); conditions: 0.3 nM 3H-NMS, 45 min, 30° C., pH 7.4, read-out: Receptor Binding Tests IC50, Heart
T2 construct: The whole heart was cut up with scissors; All the organs were then homogenized in a Potter apparatus; from tissue; host or cells: whole heart of male Sprague-Dawley rats, homogenate
T2 sequence (P10980 1-466): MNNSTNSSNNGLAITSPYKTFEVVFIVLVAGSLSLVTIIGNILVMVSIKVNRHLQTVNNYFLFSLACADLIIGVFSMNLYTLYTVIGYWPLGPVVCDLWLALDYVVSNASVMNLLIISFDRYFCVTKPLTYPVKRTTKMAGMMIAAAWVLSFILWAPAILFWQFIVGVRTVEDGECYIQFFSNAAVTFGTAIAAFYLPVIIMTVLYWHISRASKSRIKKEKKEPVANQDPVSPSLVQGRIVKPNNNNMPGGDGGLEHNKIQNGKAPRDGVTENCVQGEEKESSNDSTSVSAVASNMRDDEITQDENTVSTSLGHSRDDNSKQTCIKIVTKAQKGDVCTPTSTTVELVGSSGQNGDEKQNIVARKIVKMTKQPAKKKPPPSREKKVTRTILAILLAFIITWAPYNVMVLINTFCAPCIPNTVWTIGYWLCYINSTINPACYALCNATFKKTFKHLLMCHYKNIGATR
Description: as §6, §7, §8, §9

| Compound | ED50 at 10 min [1] [mg/kg] | Oxotremorine Test, Anti-ulcerative Effect ED50 (muscarinic receptors [2]) [mg/kg] | Oxotremorine Test, Anti-ulcerative Effect ED70 (muscarinic receptors [2]) [mg/kg] | IC50 [3] [nM] | Oxotremorine Test, Inhibition of Salivation ED50 (muscarinic receptors [4]) [mg/kg] | IC50 [5] [nM] | IC50 [6] [nM] |
| --- | --- | --- | --- | --- | --- | --- | --- |
| CN1CC=C(CC(=O)N2c3ccccc3C(=O)Nc3cccnc32)CC1 [A, 5,11-dihydro-11-[(1-methyl-1,2,5,6-tetrahydro-4-pyridinyl)acetyl]-6H-pyrido[2,3-b][1,4]benzodiazepin-6-one] | 0.074 | 0.0011 | 0.002 | 200 | 0.028 | 50 | 170 |
| CN1[C@@H]2CC[C@H]1C[C@@H](CC(=O)N1c3ccccc3C(=O)Nc3cccnc31)C2 [B, endo-5,11-dihydro-11-[(8-methyl-8-azabicyclo[3.2.1]oct-3-yl)acetyl]-6H-pyrido[2,3-b][1,4]benzodiazepin-6-one] | 0.22 |  | 0.037 | 700 | 0.3 | 50 | 150 |

— US4424226A, “Pyridobenzodiazepinones, pharmaceutical compositions thereof and method of use thereof” (Dr. Karl Thomae GmbH, priority 1982, dated 1984)
